Test results taken from ChEMBL document CHEMBL1136839, “3,4-Disubstituted isothiazoles: novel potent inhibitors of VEGF receptors 1 and 2” (Bioorg Med Chem Lett, 2009).

Assays:
[1] = target: Insulin-like growth factor 1 receptor (Homo sapiens) (UniProt P08069); assay: Inhibition of IGF1R at 10 uM by HTRF assay
[2] = target: Bcr/Abl fusion protein (Homo sapiens) (UniProt P00519+P11274); assay: Inhibition of bcr-Abl at 10 uM by HTRF assay; assay type: protein assay
[3] = target: Hepatocyte growth factor receptor (Homo sapiens) (UniProt P08581); assay: Inhibition of cMET at 10 uM by HTRF assay
[4] = target: Epidermal growth factor receptor (Homo sapiens) (UniProt P00533); assay: Inhibition of EGFR at 10 uM by HTRF assay
[5] = Inhibition of PKA at 10 uM by HTRF assay
[6] = target: Receptor-type tyrosine-protein kinase FLT3 (Homo sapiens) (UniProt P36888); assay: Inhibition of Flt3 at 10 uM by HTRF assay
[7] = target: Insulin receptor (Homo sapiens) (UniProt P06213); assay: Inhibition of InR at 10 uM by HTRF assay
Insulin receptor (Homo sapiens), sequence (P06213 28-758 limits assumed): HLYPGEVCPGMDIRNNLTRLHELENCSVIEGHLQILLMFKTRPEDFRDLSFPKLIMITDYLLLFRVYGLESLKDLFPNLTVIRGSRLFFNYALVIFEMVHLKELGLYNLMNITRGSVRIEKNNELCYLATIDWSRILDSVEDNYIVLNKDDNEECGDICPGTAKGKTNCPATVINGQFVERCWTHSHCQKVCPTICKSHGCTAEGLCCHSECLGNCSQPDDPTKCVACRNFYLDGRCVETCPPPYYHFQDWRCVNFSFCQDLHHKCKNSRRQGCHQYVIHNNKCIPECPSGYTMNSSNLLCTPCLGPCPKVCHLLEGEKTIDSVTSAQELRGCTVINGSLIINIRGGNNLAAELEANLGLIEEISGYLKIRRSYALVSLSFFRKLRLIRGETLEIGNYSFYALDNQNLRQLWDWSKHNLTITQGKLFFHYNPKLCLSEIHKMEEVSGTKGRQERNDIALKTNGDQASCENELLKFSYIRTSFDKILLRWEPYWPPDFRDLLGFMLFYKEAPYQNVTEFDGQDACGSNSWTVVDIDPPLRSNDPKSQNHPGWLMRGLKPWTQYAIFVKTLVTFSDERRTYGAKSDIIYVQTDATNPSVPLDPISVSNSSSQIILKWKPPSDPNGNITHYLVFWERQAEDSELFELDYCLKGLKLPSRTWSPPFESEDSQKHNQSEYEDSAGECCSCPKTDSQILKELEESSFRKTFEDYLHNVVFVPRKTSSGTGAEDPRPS
Insulin receptor (Homo sapiens), sequence (P06213 763-1382 limits assumed): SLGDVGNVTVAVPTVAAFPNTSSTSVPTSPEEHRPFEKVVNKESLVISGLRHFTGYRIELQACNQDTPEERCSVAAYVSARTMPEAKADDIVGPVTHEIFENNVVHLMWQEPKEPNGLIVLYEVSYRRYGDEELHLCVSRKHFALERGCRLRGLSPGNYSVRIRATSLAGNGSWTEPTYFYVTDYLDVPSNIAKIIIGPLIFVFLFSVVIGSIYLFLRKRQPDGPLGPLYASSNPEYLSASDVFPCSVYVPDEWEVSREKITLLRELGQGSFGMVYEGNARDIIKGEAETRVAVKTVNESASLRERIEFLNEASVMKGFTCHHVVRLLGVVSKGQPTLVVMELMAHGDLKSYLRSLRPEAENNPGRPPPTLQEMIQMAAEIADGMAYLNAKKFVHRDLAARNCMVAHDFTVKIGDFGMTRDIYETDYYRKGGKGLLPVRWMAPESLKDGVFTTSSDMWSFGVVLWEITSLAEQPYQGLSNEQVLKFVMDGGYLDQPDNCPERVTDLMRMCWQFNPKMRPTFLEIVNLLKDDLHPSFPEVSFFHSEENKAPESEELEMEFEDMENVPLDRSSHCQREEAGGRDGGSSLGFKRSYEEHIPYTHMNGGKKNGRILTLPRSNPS

[8] = target: Receptor tyrosine-protein kinase erbB-2 (Homo sapiens) (UniProt P04626); assay: Inhibition of ErbB2 at 10 uM by HTRF assay
Receptor tyrosine-protein kinase erbB-2 (Homo sapiens), sequence (P04626 whole entry): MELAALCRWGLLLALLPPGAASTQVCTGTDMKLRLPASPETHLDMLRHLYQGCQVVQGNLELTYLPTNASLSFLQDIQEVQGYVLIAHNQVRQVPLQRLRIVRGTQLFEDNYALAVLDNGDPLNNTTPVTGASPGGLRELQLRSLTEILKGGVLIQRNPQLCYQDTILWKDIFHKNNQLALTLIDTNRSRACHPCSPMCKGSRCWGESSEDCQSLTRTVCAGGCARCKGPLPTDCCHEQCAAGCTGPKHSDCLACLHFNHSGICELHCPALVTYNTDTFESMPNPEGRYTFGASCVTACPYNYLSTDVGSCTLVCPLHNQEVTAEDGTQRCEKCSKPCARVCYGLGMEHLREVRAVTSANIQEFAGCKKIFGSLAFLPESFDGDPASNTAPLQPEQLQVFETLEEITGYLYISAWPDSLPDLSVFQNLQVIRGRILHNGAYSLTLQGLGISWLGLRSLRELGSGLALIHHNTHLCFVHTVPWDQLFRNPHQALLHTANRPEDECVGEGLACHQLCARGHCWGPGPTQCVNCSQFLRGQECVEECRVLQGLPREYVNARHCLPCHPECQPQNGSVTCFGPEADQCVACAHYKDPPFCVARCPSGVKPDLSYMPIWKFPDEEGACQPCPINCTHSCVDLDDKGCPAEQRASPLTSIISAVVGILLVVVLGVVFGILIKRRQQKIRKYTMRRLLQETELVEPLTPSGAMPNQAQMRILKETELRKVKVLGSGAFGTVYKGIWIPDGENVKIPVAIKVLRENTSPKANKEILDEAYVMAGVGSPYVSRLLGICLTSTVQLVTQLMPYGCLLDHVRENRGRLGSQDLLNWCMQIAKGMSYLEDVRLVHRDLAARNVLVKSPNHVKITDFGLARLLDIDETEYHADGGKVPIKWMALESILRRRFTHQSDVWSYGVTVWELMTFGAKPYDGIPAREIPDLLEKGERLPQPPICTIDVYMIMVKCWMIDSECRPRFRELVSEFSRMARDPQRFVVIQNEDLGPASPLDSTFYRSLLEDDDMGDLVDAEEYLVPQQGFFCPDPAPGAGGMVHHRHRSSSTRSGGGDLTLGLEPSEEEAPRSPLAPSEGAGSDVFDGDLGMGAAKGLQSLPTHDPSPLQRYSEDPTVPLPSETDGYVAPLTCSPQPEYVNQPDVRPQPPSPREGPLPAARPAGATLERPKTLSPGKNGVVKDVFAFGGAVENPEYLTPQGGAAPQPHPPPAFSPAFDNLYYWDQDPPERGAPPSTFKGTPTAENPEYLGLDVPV

[9] = target: Cyclin-dependent kinase 2 (Homo sapiens) (UniProt P24941); assay: Inhibition of CDK2 at 10 uM by HTRF assay
[10] = target: Fibroblast growth factor receptor 1 (Homo sapiens) (UniProt P11362); assay: Inhibition of FGFR1 at 10 uM by HTRF assay
Fibroblast growth factor receptor 1 (Homo sapiens), sequence (P11362 22-822 limits assumed): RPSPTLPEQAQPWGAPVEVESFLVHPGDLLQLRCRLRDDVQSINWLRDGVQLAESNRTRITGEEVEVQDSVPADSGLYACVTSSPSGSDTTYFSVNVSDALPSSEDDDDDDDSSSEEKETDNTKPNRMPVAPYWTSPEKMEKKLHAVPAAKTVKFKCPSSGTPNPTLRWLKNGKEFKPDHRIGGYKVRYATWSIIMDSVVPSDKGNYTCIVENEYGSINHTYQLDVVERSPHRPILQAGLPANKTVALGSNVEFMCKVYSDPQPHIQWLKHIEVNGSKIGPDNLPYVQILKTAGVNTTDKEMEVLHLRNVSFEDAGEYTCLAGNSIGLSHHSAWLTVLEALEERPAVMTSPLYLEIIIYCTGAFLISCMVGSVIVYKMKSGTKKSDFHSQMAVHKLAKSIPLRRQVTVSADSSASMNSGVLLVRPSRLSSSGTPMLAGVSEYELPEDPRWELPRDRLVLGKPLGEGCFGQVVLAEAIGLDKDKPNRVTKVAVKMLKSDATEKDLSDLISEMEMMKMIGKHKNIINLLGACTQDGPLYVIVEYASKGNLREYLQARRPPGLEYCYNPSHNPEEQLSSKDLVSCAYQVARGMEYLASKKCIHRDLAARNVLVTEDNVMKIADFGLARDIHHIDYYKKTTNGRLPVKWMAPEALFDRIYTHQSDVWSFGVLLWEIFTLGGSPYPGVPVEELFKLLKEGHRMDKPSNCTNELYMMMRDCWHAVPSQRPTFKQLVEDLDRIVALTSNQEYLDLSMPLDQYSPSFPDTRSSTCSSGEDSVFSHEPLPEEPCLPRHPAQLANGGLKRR

[11] = Inhibition of Bcr-Abl T315 mutant at 10 uM by HTRF assay
[12] = target: Macrophage-stimulating protein receptor (Homo sapiens) (UniProt Q04912); assay: Inhibition of Ron at 10 uM by HTRF assay
[13] = target: Proto-oncogene tyrosine-protein kinase Src (Homo sapiens) (UniProt P12931); assay: Inhibition of Src at 10 uM by HTRF assay
Proto-oncogene tyrosine-protein kinase Src (Homo sapiens), sequence (P12931 2-536 limits assumed): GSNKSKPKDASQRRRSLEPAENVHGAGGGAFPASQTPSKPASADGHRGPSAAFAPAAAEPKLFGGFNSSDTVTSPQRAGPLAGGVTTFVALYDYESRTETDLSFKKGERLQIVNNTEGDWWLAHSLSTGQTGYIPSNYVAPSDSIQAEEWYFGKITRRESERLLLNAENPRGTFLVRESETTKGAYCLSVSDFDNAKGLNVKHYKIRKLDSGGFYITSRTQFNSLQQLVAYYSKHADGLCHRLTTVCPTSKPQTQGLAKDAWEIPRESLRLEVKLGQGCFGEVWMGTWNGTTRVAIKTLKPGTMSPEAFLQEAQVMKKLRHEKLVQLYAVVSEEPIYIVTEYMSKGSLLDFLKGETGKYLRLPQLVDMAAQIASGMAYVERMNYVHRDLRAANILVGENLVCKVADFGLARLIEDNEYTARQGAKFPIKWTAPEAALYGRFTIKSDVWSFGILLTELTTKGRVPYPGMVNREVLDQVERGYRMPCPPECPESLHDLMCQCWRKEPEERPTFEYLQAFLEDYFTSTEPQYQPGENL

[14] = target: Cyclin-dependent kinase 1 (Homo sapiens) (UniProt P06493); assay: Inhibition of CDK1 at 10 uM by HTRF assay
Cyclin-dependent kinase 1 (Homo sapiens), sequence (P06493 whole entry, looked up): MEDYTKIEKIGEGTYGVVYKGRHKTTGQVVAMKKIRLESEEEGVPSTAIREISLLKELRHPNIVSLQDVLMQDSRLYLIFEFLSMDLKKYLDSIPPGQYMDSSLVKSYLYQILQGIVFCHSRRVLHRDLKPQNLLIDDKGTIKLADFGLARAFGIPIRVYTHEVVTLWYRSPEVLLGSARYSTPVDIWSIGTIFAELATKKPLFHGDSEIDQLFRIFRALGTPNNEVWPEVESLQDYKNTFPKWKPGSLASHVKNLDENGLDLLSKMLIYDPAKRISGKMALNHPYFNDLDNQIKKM

[15] = target: Glycogen synthase kinase-3 beta (Homo sapiens) (UniProt P49841); assay: Inhibition of GSK3-beta at 10 uM by HTRF assay
Glycogen synthase kinase-3 beta (Homo sapiens), sequence (P49841 whole entry, looked up): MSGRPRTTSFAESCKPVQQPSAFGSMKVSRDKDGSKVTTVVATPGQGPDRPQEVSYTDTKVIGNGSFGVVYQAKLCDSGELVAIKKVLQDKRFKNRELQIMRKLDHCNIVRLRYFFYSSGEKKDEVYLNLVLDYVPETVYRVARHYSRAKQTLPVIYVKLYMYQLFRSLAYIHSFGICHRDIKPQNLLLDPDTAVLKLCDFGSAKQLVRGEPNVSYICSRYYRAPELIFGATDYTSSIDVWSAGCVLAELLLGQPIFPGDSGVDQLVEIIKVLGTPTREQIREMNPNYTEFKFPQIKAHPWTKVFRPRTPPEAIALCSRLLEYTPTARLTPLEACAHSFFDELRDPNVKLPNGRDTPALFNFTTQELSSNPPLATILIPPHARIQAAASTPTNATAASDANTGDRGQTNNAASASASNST

Measured: inhibition

O=C(Nc1ccc(C(F)(F)F)cc1)c1nscc1NCc1ccncc1
< 30%: all assays above

O=C(Nc1ccc(C(F)(F)F)cc1)c1nscc1NCc1ccccn1
< 30%: all assays above

CC(C)(C)c1ccc(NC(=O)c2nscc2NCc2ccncc2)cc1
< 30%: all assays above

O=C(Nc1ccc2[nH]ncc2c1)c1nscc1NCc1ccncc1
< 30%: all assays above

O=C(Nc1cccc(C(F)(F)F)c1)c1nscc1NCc1ccc(F)c(F)c1
< 30%: all assays above

Cc1ccc(NC(=O)c2nscc2NCc2ccncc2)c(F)c1
< 30%: all assays above

O=C(Nc1ccc(Cl)cc1)c1nscc1NCc1ccncc1
< 30%: all assays above

O=C(Nc1cccc(C(F)(F)F)c1)c1nscc1NCc1cccnc1
< 30%: all assays above

Cc1cc(NC(=O)c2nscc2NCc2ccncc2)ccc1C(F)(F)F
< 30%: all assays above

O=C(Nc1ccc(OC(F)(F)F)cc1)c1nscc1NCc1ccncc1
< 30%: all assays above

O=C(Nc1cccc(Br)c1)c1nscc1NCc1cnoc1
< 30%: all assays above

O=C(Nc1ccccc1Br)c1nscc1NCc1ccncc1
< 30%: all assays above

O=C(Nc1ccc(C(F)(F)F)cc1)c1nscc1NCc1cccnc1
< 30%: all assays above
